# Reference: paper PMC5218480 (PLoS ONE, 2017)
# System: MV-4-11 cells
# Assay: Gene expression microarray analysis (Affymetrix PrimeView) and GSEA
# Format: cell-based, human
# Set-up: RFU PODN (11730768_x_at) / Fold change /veh PODN (11730768_x_at) / RFU LINC00158 (11744669_a_at) / Fold change /veh LINC00158 (11744669_a_at) / RFU DUSP10 (11751237_a_at) / Fold change /veh DUSP10 (11751237_a_at) / RFU ID3 (11757404_x_at) / Fold change /veh ID3 (11757404_x_at) / RFU PLEKHG5 (11737974_s_at) / Fold change /veh PLEKHG5 (11737974_s_at) / RFU LRRC4B (11730491_at) / Fold change /veh LRRC4B (11730491_at) / RFU GIMAP4 (11747438_a_at) / Fold change /veh GIMAP4 (11747438_a_at) / RFU KRT8 (11758183_x_at) / Fold change /veh KRT8 (11758183_x_at) / RFU CNN1 (11734310_a_at) / Fold change /veh CNN1 (11734310_a_at) / RFU VPS37D (11726825_at) / Fold change /veh VPS37D (11726825_at) / RFU C10orf10 (11716522_x_at) / Fold change /veh C10orf10 (11716522_x_at) / RFU KIR2DL2 /// KIR2DL4 /// KIR2DL5A /// KIR2DL5B /// KIR2DS1 /// KIR2DS2 /// KIR2DS3 /// KIR2DS4 /// KIR3DL3 /// KIR3DL3 /// KIR3DS1 (11738374_at) / Fold change /veh KIR2DL2 /// KIR2DL4 /// KIR2DL5A /// KIR2DL5B /// KIR2DS1 /// KIR2DS2 /// KIR2DS3 /// KIR2DS4 /// KIR3DL3 /// KIR3DL3 /// KIR3DS1 (11738374_at) / RFU C1QL1 (11718748_at) / Fold change /veh C1QL1 (11718748_at) / RFU TMPRSS4 (11747572_a_at) / Fold change /veh TMPRSS4 (11747572_a_at) / RFU HAMP (11756126_x_at) / Fold change /veh HAMP (11756126_x_at) / RFU RNFT2 (11725882_a_at) / Fold change /veh RNFT2 (11725882_a_at) / RFU NR4A2 (11747474_a_at) / Fold change /veh NR4A2 (11747474_a_at) / RFU ABCC12 (11746883_a_at) / Fold change /veh ABCC12 (11746883_a_at) / RFU TMEM136 (11760407_x_at) / Fold change /veh TMEM136 (11760407_x_at) / RFU CLDN22 /// WWC2 (11732394_at) / Fold change /veh CLDN22 /// WWC2 (11732394_at) / RFU HLA-DPB1 (11760878_x_at) / Fold change /veh HLA-DPB1 (11760878_x_at) / RFU SPINT1 (11716480_a_at) / Fold change /veh SPINT1 (11716480_a_at) / RFU GAP43 (11754022_s_at) / Fold change /veh GAP43 (11754022_s_at) / RFU A4GNT (11735810_at) / Fold change /veh A4GNT (11735810_at) / RFU PRB3 (11715151_x_at) / Fold change /veh PRB3 (11715151_x_at) / RFU TUBB4B (11761932_at) / Fold change /veh TUBB4B (11761932_at) / RFU CAPN14 (11732068_a_at) / Fold change /veh CAPN14 (11732068_a_at) / RFU TMCC2 (11721928_a_at) / Fold change /veh TMCC2 (11721928_a_at) / RFU IRGQ (11745062_a_at) / Fold change /veh IRGQ (11745062_a_at) / RFU FAM174B (11720279_a_at) / Fold change /veh FAM174B (11720279_a_at) / RFU TMPRSS4 (11748680_a_at) / Fold change /veh TMPRSS4 (11748680_a_at) / RFU FAM212B (11763350_a_at) / Fold change /veh FAM212B (11763350_a_at) / RFU PLEKHG5 (11743358_a_at) / Fold change /veh PLEKHG5 (11743358_a_at) / RFU ZSCAN30 (11745921_a_at) / Fold change /veh ZSCAN30 (11745921_a_at) / RFU CMKLR1 (11741424_a_at) / Fold change /veh CMKLR1 (11741424_a_at) / RFU LOC101060620 /// MAPK8IP1 (11723275_at) / Fold change /veh LOC101060620 /// MAPK8IP1 (11723275_at) / RFU SPTSSB (11747773_x_at) / Fold change /veh SPTSSB (11747773_x_at) / RFU PRSS12 (11739890_at) / Fold change /veh PRSS12 (11739890_at) / RFU BIN1 (11741810_x_at) / Fold change /veh BIN1 (11741810_x_at) / RFU WNT11 (11732464_a_at) / Fold change /veh WNT11 (11732464_a_at) / RFU C10orf10 (11716521_a_at) / Fold change /veh C10orf10 (11716521_a_at) / RFU C5orf56 (11738089_at) / Fold change /veh C5orf56 (11738089_at) / RFU CYB561 (11721691_x_at) / Fold change /veh CYB561 (11721691_x_at) / RFU ANKRD19P (11752326_a_at) / Fold change /veh ANKRD19P (11752326_a_at) / RFU OR2T12 /// OR2T33 /// OR2T8 (11738714_s_at) / Fold change /veh OR2T12 /// OR2T33 /// OR2T8 (11738714_s_at) / RFU VCAN (11748164_a_at) / Fold change /veh VCAN (11748164_a_at) / RFU JSRP1 (11732532_at) / Fold change /veh JSRP1 (11732532_at) / RFU KRTAP10-11 (11738290_x_at) / Fold change /veh KRTAP10-11 (11738290_x_at) / RFU MYO3A (11730013_a_at) / Fold change /veh MYO3A (11730013_a_at) / RFU EBF3 (11725865_a_at) / Fold change /veh EBF3 (11725865_a_at) / RFU CAMK2N1 (11719241_x_at) / Fold change /veh CAMK2N1 (11719241_x_at) / RFU C5orf56 (11738088_a_at) / Fold change /veh C5orf56 (11738088_a_at) / RFU OLFML3 (11715873_a_at) / Fold change /veh OLFML3 (11715873_a_at) / RFU LOC100653217 /// NTM (11731650_a_at) / Fold change /veh LOC100653217 /// NTM (11731650_a_at) / RFU MAPK11 (11762145_a_at) / Fold change /veh MAPK11 (11762145_a_at) / RFU FIZ1 (11724087_x_at) / Fold change /veh FIZ1 (11724087_x_at) / RFU OASL (11726364_x_at) / Fold change /veh OASL (11726364_x_at) / RFU SOX15 (11748057_x_at) / Fold change /veh SOX15 (11748057_x_at) / RFU CD79A (11719716_a_at) / Fold change /veh CD79A (11719716_a_at) / RFU HIST1H1D (11736915_at) / Fold change /veh HIST1H1D (11736915_at) / RFU CASKIN2 (11723855_a_at) / Fold change /veh CASKIN2 (11723855_a_at) / RFU LOC730098 (11760151_x_at) / Fold change /veh LOC730098 (11760151_x_at) / RFU OR4N2 (11742367_at) / Fold change /veh OR4N2 (11742367_at) / RFU PRRT2 (11749266_a_at) / Fold change /veh PRRT2 (11749266_a_at) / RFU SNX32 (11753110_a_at) / Fold change /veh SNX32 (11753110_a_at) / RFU CDHR5 (11726645_a_at) / Fold change /veh CDHR5 (11726645_a_at) / RFU RCAN1 (11760418_a_at) / Fold change /veh RCAN1 (11760418_a_at) / RFU FAM167A (11723789_a_at) / Fold change /veh FAM167A (11723789_a_at) / RFU FAM26E (11764081_at) / Fold change /veh FAM26E (11764081_at) / RFU ISYNA1 (11749810_s_at) / Fold change /veh ISYNA1 (11749810_s_at) / RFU ACY1 (11761880_at) / Fold change /veh ACY1 (11761880_at) / RFU 11764098_at / Fold change /veh 11764098_at / RFU SAMD14 (11745864_x_at) / Fold change /veh SAMD14 (11745864_x_at) / RFU NPB (11741838_a_at) / Fold change /veh NPB (11741838_a_at) / RFU TMPRSS6 (11731388_a_at) / Fold change /veh TMPRSS6 (11731388_a_at) / RFU KRTAP10-2 (11738614_at) / Fold change /veh KRTAP10-2 (11738614_at) / RFU ARHGAP8 /// PRR5-ARHGAP8 (11727945_x_at) / Fold change /veh ARHGAP8 /// PRR5-ARHGAP8 (11727945_x_at) / RFU KRTAP5-7 /// NADSYN1 (11734609_at) / Fold change /veh KRTAP5-7 /// NADSYN1 (11734609_at) / RFU RASL12 (11751679_a_at) / Fold change /veh RASL12 (11751679_a_at) / RFU CDKN2B (11736163_a_at) / Fold change /veh CDKN2B (11736163_a_at) / RFU PRF1 (11729649_at) / Fold change /veh PRF1 (11729649_at) / RFU, ZNF638 /// ZNF638-IT1 / Fold change vs veh, ZNF638 /// ZNF638-IT1 / RFU, PANK3 / Fold change vs veh, PANK3 / RFU, SH3YL1 / Fold change vs veh, SH3YL1 / RFU, ZEB2 / Fold change vs veh, ZEB2 / RFU, NRIP1 / Fold change vs veh, NRIP1 / RFU, PTTG1IP / Fold change vs veh, PTTG1IP / RFU, CAPN2 / Fold change vs veh, CAPN2 / RFU, MED14 / Fold change vs veh, MED14 / RFU, SNORA58 / Fold change vs veh, SNORA58 / RFU, C1orf63 / Fold change vs veh, C1orf63 / RFU, LRRFIP1 / Fold change vs veh, LRRFIP1 / RFU, NDUFAF7 / Fold change vs veh, NDUFAF7 / RFU, SLC12A2 / Fold change vs veh, SLC12A2 / RFU, IBTK / Fold change vs veh, IBTK / RFU, ESF1 / Fold change vs veh, ESF1 / Fold change vs veh, TMEM50B / RFU, TAOK1 / Fold change vs veh, TAOK1 / RFU, ACBD3 / Fold change vs veh, ACBD3 / RFU, TMA16 / Fold change vs veh, TMA16 / RFU, RWDD3 / Fold change vs veh, RWDD3 / RFU, BCAT1 / Fold change vs veh, BCAT1 / RFU, EDEM3 / Fold change vs veh, EDEM3 / RFU, TMEM33 / Fold change vs veh, TMEM33 / RFU, WDR75 / Fold change vs veh, WDR75 / RFU, AHCTF1 / Fold change vs veh, AHCTF1 / RFU, TFRC / Fold change vs veh, TFRC / RFU, ZDHHC17 / Fold change vs veh, ZDHHC17 / RFU, NOM1 / Fold change vs veh, NOM1 / RFU, ARL8B / Fold change vs veh, ARL8B / RFU, ZBTB11 / Fold change vs veh, ZBTB11 / RFU, TAMM41 / Fold change vs veh, TAMM41 / RFU, KIAA1704 /// LOC100996395 / Fold change vs veh, KIAA1704 /// LOC100996395 / RFU, ING1 / Fold change vs veh, ING1 / RFU, TRMT61B / Fold change vs veh, TRMT61B / RFU, FUBP3 / Fold change vs veh, FUBP3 / RFU, TP53 / Fold change vs veh, TP53 / RFU, TNKS2 / Fold change vs veh, TNKS2 / RFU, ZFP14 / Fold change vs veh, ZFP14 / RFU, ACTR2 / Fold change vs veh, ACTR2 / RFU, PPP3R1 / Fold change vs veh, PPP3R1 / RFU, PIK3R1 / Fold change vs veh, PIK3R1 / RFU, HNRNPA1 / Fold change vs veh, HNRNPA1 / RFU, RNF170 / Fold change vs veh, RNF170 / RFU, ZNF28 / Fold change vs veh, ZNF28 / RFU, RNGTT / Fold change vs veh, RNGTT / RFU, OGT / Fold change vs veh, OGT / RFU, BRD1 / Fold change vs veh, BRD1 / RFU, MARS / Fold change vs veh, MARS / RFU, ZNF655 / Fold change vs veh, ZNF655 / RFU, FAHD1 / Fold change vs veh, FAHD1 / RFU, BDP1 / Fold change vs veh, BDP1 / RFU, LRRCC1 / Fold change vs veh, LRRCC1 / RFU, ARID1A / Fold change vs veh, ARID1A / RFU, ZNF146 / Fold change vs veh, ZNF146 / RFU, ZNF330 / Fold change vs veh, ZNF330 / RFU, GPN3 / Fold change vs veh, GPN3 / RFU, C9orf123 / Fold change vs veh, C9orf123 / RFU, N4BP2L2 / Fold change vs veh, N4BP2L2 / RFU, ARFIP1 / Fold change vs veh, ARFIP1 / RFU, FAM179B / Fold change vs veh, FAM179B / RFU, BCL10 / Fold change vs veh, BCL10 / RFU, UHRF1BP1L / Fold change vs veh, UHRF1BP1L / RFU, BET1 / Fold change vs veh, BET1 / RFU, CNOT2 / Fold change vs veh, CNOT2 / RFU, ZNF268 / Fold change vs veh, ZNF268 / Fold change vs veh, ZNF507 / RFU, DGCR2 / Fold change vs veh, DGCR2 / RFU, WDSUB1 / Fold change vs veh, WDSUB1 / Fold change vs veh, HSP90B1 /// MIR3652 / RFU, ADSS / Fold change vs veh, ADSS / RFU, GK / Fold change vs veh, GK / RFU, ZNF148 / Fold change vs veh, ZNF148 / RFU, TAF9 / Fold change vs veh, TAF9 / RFU, SLC1A5 / Fold change vs veh, SLC1A5 / RFU, SLMO2 / Fold change vs veh, SLMO2 / RFU, ABCC4 / Fold change vs veh, ABCC4 / RFU, LOC101060439 /// RAP1B / Fold change vs veh, LOC101060439 /// RAP1B / RFU, RFX7 / Fold change vs veh, RFX7 / RFU, GTPBP10 / Fold change vs veh, GTPBP10 / RFU, CNEP1R1 / Fold change vs veh, CNEP1R1 / RFU, BIVM-ERCC5 /// ERCC5 / Fold change vs veh, BIVM-ERCC5 /// ERCC5 / RFU, ILF3 / Fold change vs veh, ILF3 / RFU 11762660_at / Fold change /veh 11762660_at / RFU VCAN (11757783_s_at) / Fold change /veh VCAN (11757783_s_at) / RFU DDX43 (11728927_at) / Fold change /veh DDX43 (11728927_at) / RFU KRT8 (11758188_x_at) / Fold change /veh KRT8 (11758188_x_at) / RFU NKD1 (11759106_at) / Fold change /veh NKD1 (11759106_at) / RFU SRD5A1 (11742802_a_at) / Fold change /veh SRD5A1 (11742802_a_at) / RFU TPSAB1 /// TPSB2 (11721975_s_at) / Fold change /veh TPSAB1 /// TPSB2 (11721975_s_at) / RFU GSTM3 (11746129_a_at) / Fold change /veh GSTM3 (11746129_a_at) / RFU IL23R (11737362_x_at) / Fold change /veh IL23R (11737362_x_at) / RFU TMEM51 (11727254_a_at) / Fold change /veh TMEM51 (11727254_a_at) / RFU PIWIL2 (11732686_x_at) / Fold change /veh PIWIL2 (11732686_x_at) / RFU ORM1 (11744905_x_at) / Fold change /veh ORM1 (11744905_x_at) / RFU CCDC152 (11743942_at) / Fold change /veh CCDC152 (11743942_at) / RFU ECM1 (11717891_a_at) / Fold change /veh ECM1 (11717891_a_at) / RFU IL23R (11748794_a_at) / Fold change /veh IL23R (11748794_a_at) / RFU TNFAIP8L3 (11732012_x_at) / Fold change /veh TNFAIP8L3 (11732012_x_at) / RFU MBOAT4 (11741988_at) / Fold change /veh MBOAT4 (11741988_at) / RFU 11764193_at / Fold change /veh 11764193_at / RFU TMEM53 (11763286_at) / Fold change /veh TMEM53 (11763286_at) / RFU MAGEB2 (11727129_at) / Fold change /veh MAGEB2 (11727129_at) / RFU TMEM200A (11744735_a_at) / Fold change /veh TMEM200A (11744735_a_at) / RFU CCDC152 (11751479_a_at) / Fold change /veh CCDC152 (11751479_a_at) / RFU FAM211A (11726209_a_at) / Fold change /veh FAM211A (11726209_a_at) / RFU RGS16 (11746705_a_at) / Fold change /veh RGS16 (11746705_a_at) / RFU VCAN (11755009_s_at) / Fold change /veh VCAN (11755009_s_at) / RFU RHOB (11743442_s_at) / Fold change /veh RHOB (11743442_s_at) / RFU RGS16 (11720943_a_at) / Fold change /veh RGS16 (11720943_a_at) / RFU RGS16 (11720944_at) / Fold change /veh RGS16 (11720944_at) / RFU, VPS4B / Fold change vs veh, VPS4B / RFU, CREB1 / Fold change vs veh, CREB1 / RFU, DNAJC13 / Fold change vs veh, DNAJC13 / RFU, GNAQ / Fold change vs veh, GNAQ / RFU, CDK5R1 / Fold change vs veh, CDK5R1 / RFU, ZRANB3 / Fold change vs veh, ZRANB3 / RFU, CUL4A / Fold change vs veh, CUL4A / RFU, CCNY / Fold change vs veh, CCNY / RFU, UFL1 / Fold change vs veh, UFL1 / RFU, COG3 / Fold change vs veh, COG3 / RFU, DIAPH2 / Fold change vs veh, DIAPH2 / RFU, SKA2 / Fold change vs veh, SKA2 / RFU, AFF3 / Fold change vs veh, AFF3 / RFU, LMF1 / Fold change vs veh, LMF1 / RFU, IPO11 / Fold change vs veh, IPO11 / RFU, DFFB / Fold change vs veh, DFFB / RFU, FOXP1 / Fold change vs veh, FOXP1 / RFU, CARD8 / Fold change vs veh, CARD8 / RFU, STRN3 / Fold change vs veh, STRN3 / RFU, ADK / Fold change vs veh, ADK / RFU, RASSF2 / Fold change vs veh, RASSF2 / RFU, WIPF1 / Fold change vs veh, WIPF1 / RFU, LARP1B / Fold change vs veh, LARP1B / RFU, RASA1 / Fold change vs veh, RASA1 / RFU, RB1 / Fold change vs veh, RB1 / RFU, PPFIA1 / Fold change vs veh, PPFIA1 / RFU, MAT2A / Fold change vs veh, MAT2A / RFU, CCT5 / Fold change vs veh, CCT5 / RFU, WDR92 / Fold change vs veh, WDR92 / RFU, CUX1 / Fold change vs veh, CUX1 / RFU, TTC7A / Fold change vs veh, TTC7A / RFU, TMEM135 / Fold change vs veh, TMEM135 / RFU, DEPTOR / Fold change vs veh, DEPTOR / RFU, CPM / Fold change vs veh, CPM / RFU, DNAJB6 / Fold change vs veh, DNAJB6 / RFU, CACNA2D3 / Fold change vs veh, CACNA2D3 / RFU, DTX4 / Fold change vs veh, DTX4 / RFU, TFCP2 / Fold change vs veh, TFCP2 / RFU, GMCL1 /// GMCL1P1 / Fold change vs veh, GMCL1 /// GMCL1P1 / RFU, AEBP2 / Fold change vs veh, AEBP2 / RFU, SNHG1 /// SNORD22 /// SNORD25 /// SNORD26 /// SNORD27 /// SNORD28 /// SNORD29 /// SNORD31 / Fold change vs veh, SNHG1 /// SNORD22 /// SNORD25 /// SNORD26 /// SNORD27 /// SNORD28 /// SNORD29 /// SNORD31 / Fold change (Aza/veh), C12orf56 (ProbeSet 11735607_a_at) / Fold change (ACY-1035/veh), C12orf56 (ProbeSet 11735607_a_at) / Fold change (Aza/veh), FGFR1OP (ProbeSet 11751329_s_at) / Fold change (ACY-1035/veh), FGFR1OP (ProbeSet 11751329_s_at) / Fold change (Aza/veh), VPS36 (ProbeSet 11739960_a_at) / Fold change (ACY-1035/veh), VPS36 (ProbeSet 11739960_a_at) / RFU SYPL1 (11715823_x_at) / Fold change /veh SYPL1 (11715823_x_at) / RFU IGFBP7 (11715501_s_at) / Fold change /veh IGFBP7 (11715501_s_at) / RFU REEP3 (11722064_at) / Fold change /veh REEP3 (11722064_at) / RFU IGLL1 (11728026_x_at) / Fold change /veh IGLL1 (11728026_x_at): dose or concentration left out as unconfirmed
# Details: MV-4-11 cells, 48 hours
structure (smiles),measurement,value
Nc1ccc(-c2cccs2)cc1NC(=O)c1ccc2c(c1)cc(C1CC1)n2CCN1CCOCC1 [ACY-1035],RFU C5orf56 (11738089_at),10.10 RFU
